The conditions of data set [1]: mouse, in vivo, ip.
For data set [2], the target named is T1, STING (Mus musculus, UniProt Q3TBT3).
T1 sequence (Q3TBT3 1-378): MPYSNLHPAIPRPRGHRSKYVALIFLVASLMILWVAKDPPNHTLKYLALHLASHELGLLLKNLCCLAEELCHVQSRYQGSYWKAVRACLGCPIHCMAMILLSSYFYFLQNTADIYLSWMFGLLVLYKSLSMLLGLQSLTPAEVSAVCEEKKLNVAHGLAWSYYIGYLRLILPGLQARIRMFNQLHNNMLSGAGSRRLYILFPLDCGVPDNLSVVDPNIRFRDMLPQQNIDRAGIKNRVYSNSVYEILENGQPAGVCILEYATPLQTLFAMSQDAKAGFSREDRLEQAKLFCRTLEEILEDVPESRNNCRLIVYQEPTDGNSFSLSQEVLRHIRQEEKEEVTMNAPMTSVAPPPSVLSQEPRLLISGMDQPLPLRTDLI
Put plainly: IFN-beta luciferase reporter in HEK293T cells transfected with STING, alone or with a cyclic dinucleotide synthase. In kind it is cell-based. Details: expressed in transfected cells; host or cells: HEK293T. Conditions: wild-type HEK293T; STING expressed alone or in conjunction with cdG-Syn; 0.01-5µM; 16 h. Here is the method:
Reporter activity was measured 16 h after compound treatment. A nonlinear regression analysis was performed. […] Cytokine levels were normalized to DMSO-treated control cells. […] Nuclei were stained with DAPI. […] Depicted genes were measured by RT-qPCR. […] 16 h later Luciferase activity was measured. […] Flag-STING was immunoprecipitated and analysed by autoradiography.
HEK293T cells expressing murine STING with an N-terminal mCherry-tag ^28 were transfected using GeneJuice (Millipore) with a construct encoding for cyclic di-GMP synthase in conjunction with an IFN-• firefly luciferase reporter plasmid. 3 h after transfection cells were seeded in […] (Corning) coated with library compounds. For each compounds, a 40 nl volume was selected to obtain a concentration of 10 µM in the assay plates. The amount of DMSO in each well was normalised to 0.1%. After overnight treatment, cells were lysed in lysis buffer (25 mM Tris-phosphate (pH 7.8), 2 mM DTT, 2 mM 1,2-diaminocyclohexane-N,N,N',N'-tetraacetic acid, 10% glycerol, 1% Triton® X-100) for 20 min followed by the addition of firefly luciferase. Reporter activity was measured using a Tecan Infinite plate reader. The screen was performed using on ∼ 20.000 compounds from a chemically diverse compound collection available at the BSF core facility at EPFL.
In these cells, transient transfection of vectors encoding for cyclic di-GMP synthase (cdG-Syn) and an IFN-• reporter leads to robust induction of firefly luciferase activity. We used this system to perform a high-throughput chemical screen with a library of ∼ 20.000 small molecule compounds (Fig. 6b). To increase the selectivity of candidate compounds against the STING pathway, hits from the primary screen were counter-screened for their effect on RIG-I-driven activation of the IFN-• reporter. […] To further validate the two small molecules, we treated wild-type HEK293T cells with C-178 and C-176, in which STING was either expressed alone or in conjunction with cdG-Syn. […] We next conducted a limited structure-activity relationship (SAR) analysis. Since both C-178 and C-176 share a characteristic nitrofuran moiety, we prepared analogues of C-176/8 in which this structural motif was substituted (Fig. 1c).
For orientation: In a reporter assay the amount or activity of a reporter protein is the signal.

Data set [3] addresses T2, Flag-STING (Mus musculus, UniProt Q3TBT3).
T2 construct: expressed in transfected cells; host or cells: HEK293T (lentiviral transduction, induced overnight)
T2 sequence (Q3TBT3 1-378): T1 sequence (Q3TBT3 1-378)
Put plainly: Protein mass spectrometry of immunoprecipitated Flag-STING. The format is binding. Conditions: Flag-STING; 1 µM, 30min.

Data set [4] has as its target T3, Flag-STING (Mus musculus, UniProt Q3TBT3, C91S).
T3 construct: expressed in transfected cells; host or cells: HEK293T (lentiviral transduction, induced overnight)
T3 sequence (Q3TBT3 1-378 C91S): T1 sequence (Q3TBT3 1-378) with C91S
The description is as above. The format is binding. Particulars: Flag-STING C91S; 1µM.

Substitutions are numbered along the chain they refer to.

`O=C(Nc1ccc(I)cc1)c1ccc([N+](=O)[O-])o1` [C-176, N-(4-iodophenyl)-5-nitro-2-furamide]: in data set [1], the serum half-life entry is listed as “short”. The “half-maximal inhibitory concentration (IC50) values, IFN-• reporter activity” value in data set [2] is “nanomolar”. In data set [3], the “covalent modification of STING, mass shift” value was “irreversibly modify STING”. Also, the “covalent binding to STING-C91S” value in data set [4] was “absence of covalent binding”.

The values above are taken from EP3502102A1, “STING INHIBITORS” (ECOLE POLYTECHNIQUE FEDERALE DE LAUSANNE (EPFL), priority 2017, dated 2019).
